According to patent publication US20070197523A1, “CALCIUM CHANNEL ANTAGONISTS” (ICAGEN, INC., priority 2005, published 2007):

Tested on: T-type calcium channels
Assay: T-type calcium channel inhibitory activity (fluorometric FLIPR Fluo-4 and whole cell patch clamp)
Assay type: cell-based, mammalian
Conditions: inhibition of T-type calcium channels; cells natively expressing or HEK-293 cells expressing recombinant channels
Protocol: T-type calcium channel inhibitory activity of some compounds of the invention was evaluated using both fluorometric as well as electrophysiological measurement methodologies, which are known to those skilled in the art. Fluorescence measurement of changes in intracellular calcium due to entry of calcium through T-type calcium channels was assessed using calcium sensitive fluorescent dyes Fluo-4 and Fluo-3. In brief, cells natively expressing T-type channels or HEK-293 cells transiently or stably expressing recombinant mammalian T-type calcium channels grown in 96-well tissue culture plates in DMEM/High glucose, Hyclone, Fetal Bovine Serum (10%), and 2 mM sodium pyruvate 2 mM (and for cells lines recombinantly expressing T-type calcium channels, G418 @ 400 mg/liter) were loaded with 4 μM Fluo-4 made up in Earls Balanced Salt Solution (EBSS). After incubation for 30 minutes at room temperature, cells were washed with low calcium (0.5 mM) EBSS to remove extracellular Fluo-4. Baseline fluorescence was measured in a FLIPR (FLuorescence Image Plate Reader) (Molecular Devices Inc) after applying test compounds at desired concentration for 5-10 minutes. The effect of test compound on calcium entry was assessed by monitoring changes in Fluo-4 fluorescence following an elevation of extracellular calcium concentration from 0.5 mM to 5 mM. […] Native cells natively expressing T-type channels or HEK-293 cells transiently or stably expressing recombinant mammalian T-type calcium channels were grown in DMEM/High glucose, Hyclone, Fetal Bovine Serum (10%), 2 mM sodium pyruvate 2 mM (and for cells lines recombinantly expressing T-type calcium channels, G418 @ 400 mg/liter) on glass coverslips in 35 mm tissue culture dishes. Experiments were performed by placing T-type calcium channels expressing cells in a recording chamber perfused with EBSS (which contains (in mM): 132 NaCl, 5.4 KCl, 1.8 CaCl2, 0.8 MgCl2, 10 Hepes, 5 glucose, pH 7.4 with NaOH) on the stage of an inverted microscope. Electrical currents were measured using the whole cell configuration of the patch clamp technique (Axopatch 200B, Axon Instruments (Molecular Devices) (see Hamill et al (1981) Pflugers Arch. 1981 391:85-100) using 2-2.5 MOhm resistance glass pipettes filled with 135 CsF, 5 CsCl, 5 NaCl, 5 EGTA, 10 HEPES, pH 7.3 with CsOH, Osmolarity ˜288 mOsm. Test compound effects were typically assessed under conditions in which approximately half of the available channels were inactivated either by an 8 second conditioning depolarization from a holding potential of −100 mV to a potential ranging from −70 mV to −60 mV or by continually holding the membrane potential at −70 mV. Test compounds were assessed for their ability to reduce the amplitude of the inward T-type calcium current elicited by a 100 ms step depolarization −20 or −30 mV.

SMILES	IC50 [nM]
CCOc1cccc(S(=O)(=O)c2cnc(NC(=O)Cc3ccc(OC)c(OC)c3)s2)c1 [Example 1, 2-(3,4-Dimethoxy-phenyl)-N-[5-(3-ethoxy-benzenesulfonyl)-thiazol-2-yl]-acetamide]	1 to 1000
CCOc1cccc(S(=O)(=O)c2cnc(Nc3cc(NCC(C)(C)N)nc(C)n3)s2)c1 [Example 6, N-(2-Amino-2-methyl-propyl)-N′-[5-(3-ethoxy-benzenesulfonyl)-thiazol-2-yl]-2-methyl-pyrimidine-4,6-diamine]	1 to 1000
CCOc1cccc(S(=O)(=O)c2cnc(Nc3cc(NCCN(C)C)nc(C)n3)s2)c1 [Example 8, N-(2-Dimethylamino-ethyl)-N′-[5-(3-ethoxy-benzenesulfonyl)-thiazol-2-yl]-2-methyl-pyrimidine-4,6-diamine]	1 to 1000
CCOc1cccc(S(=O)(=O)c2cnc(Nc3cc(NCC[C@H]4CCNC4)nc(C)n3)s2)c1 [Example 10, N-[5-(3-ethoxy-benzenesulfonyl)-thiazol-2-yl]-2-methyl-N′-(R)-(pyrrolidin-3-yl-ethyl)-pyrimidine-4,6-diamine]	1 to 1000
CCOc1cccc(S(=O)(=O)c2cnc(Nc3cc(NCC4(N)CCCCC4)nc(C)n3)s2)c1 [Example 11, N-(1-Amino-cyclohexylmethyl)-N′-[5-(3-ethoxy-benzenesulfonyl)-thiazol-2-yl]-2-methyl-pyrimidine-4,6-diamine]	1 to 1000
CCOc1cccc(S(=O)(=O)c2cnc(Nc3nc(C)nc(N(C)CCOC)c3F)s2)c1 [Example 13, N-[5-(3-ethoxy-benzenesulfonyl)-thiazol-2-yl]-5-fluoro-N′-(2-methoxy-ethyl)-2, N′-dimethyl-pyrimidine-4,6-diamine]	1 to 1000
CCOc1cccc(S(=O)(=O)c2cnc(Nc3nc(C)nc(NCC(C)(C)N)c3F)s2)c1 [Example 14, N-(2-Amino-2-methyl-propyl)-N′-[5-(3-ethoxy-benzenesulfonyl)-thiazol-2-yl]-5-fluoro-2-methyl-pyrimidine-4,6-diamine]	1 to 1000

Continued, values first:

IC50 [nM]	SMILES
1 to 1000	CCOc1cccc(S(=O)(=O)c2cnc(Nc3cc(NCCN4CCCC4)ncn3)s2)c1 [Example 2, N-(2-Pyrrolidin-1-ethyl)-N′-[5-(3-ethoxy-benzenesulfonyl)-thiazol-2-yl]-pyrimidine-4,6-diamine]
1 to 1000	CCOc1cccc(S(=O)(=O)c2cnc(Nc3cc(NCCN(C)C)ncn3)s2)c1 [Example 3, N-(2-Dimethylamino-ethyl)-N′-[5-(3-ethoxy-benzenesulfonyl)-thiazol-2-yl]-pyrimidine-4,6-diamine]
1000 to 10000	CCOc1cccc(S(=O)(=O)c2cnc(Nc3cc(NCCOC)ncn3)s2)c1 [Example 4, N-[5-(3-Ethoxy-benzenesulfonyl)-thiazol-2-yl]-N′-(2-methoxy-ethyl)-pyrimidine-4,6-diamine]
1000 to 10000	CCOc1cccc(S(=O)(=O)c2cnc(Nc3cc(N(C)CCOC)ncn3)s2)c1 [Example 5, N-[5-(3-Ethoxy-benzenesulfonyl)-thiazol-2-yl]-N′-(2-methoxy-ethyl)-N′-methyl-pyrimidine-4,6-diamine]
1000 to 10000	CCOc1cccc(S(=O)(=O)c2cnc(Nc3cc(NCCOC)nc(C)n3)s2)c1 [Example 7, N-[5-(3-ethoxy-benzenesulfonyl)-thiazol-2-yl]-N′-(2-methoxy-ethyl)-2-methyl-pyrimidine-4,6-diamine]
1 to 1000	CCOc1cccc(S(=O)(=O)c2cnc(Nc3cc(NCCN4CCCC4)nc(C)n3)s2)c1 [Example 9, N-[5-(3-ethoxy-benzenesulfonyl)-thiazol-2-yl]-2-methyl-N′-(2-pyrrolidin-1-yl-ethyl)-pyrimidine-4,6-diamine]
1 to 1000	CCOc1cccc(S(=O)(=O)c2cnc(Nc3nc(C)nc(NCCN4CCCC4)c3F)s2)c1 [Example 12, N-[5-(3-Ethoxy-benzenesulfonyl)-thiazol-2-yl]-5-fluoro-2-methyl-N′-(2-pyrrolidin-1-yl-ethyl)-pyrimidine-4,6-diamine]
